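Briefly, cells in 96-well plates were exposed to five compound concentrations for 48 h, and endpoints were estimated by linear interpolation. Abbreviation: GI50, concentration required for 50% inhibition of growth. TGI marks complete inhibition of growth.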
Experiments:
Assay in all cases: DTP human tumour cell line panel, 48 h
[1] = test system: ACHN renal
[2] = test system: CAKI-1 renal
[3] = test system: HOP-62 NSCLC
[4] = test system: M14 melanoma
[5] = test system: NCI-H23 lung
[6] = test system: NCI-H522 lung
[7] = test system: RPMI-8226 leukemia
[8] = test system: TK-10 renal
[9] = test system: MDA-MB-231 breast
[10] = test system: DU-145 prostate

## NC(CO)c1ccc(OCc2ccccc2)cc1 (stereo not drawn)
[1]
  TGI: > 100 µM
[2]
  TGI: > 91.4 µM
[3]
  TGI: > 100 µM
[4]
  TGI: > 100 µM
[5]
  TGI: > 100 µM
[6]
  TGI: > 100 µM
[7]
  TGI: > 100 µM
[8]
  TGI: > 100 µM

## CCN1C(=O)N(CC)C2C1NC(=S)N2/N=C/C=C/c1ccccc1OC (stereo not drawn)
[1]
  GI50: 0.0401 µM
  TGI: > 100 µM
[2]
  GI50: 0.0514 µM
  TGI: > 100 µM
[3]
  GI50: 0.0463 µM
  TGI: > 100 µM
[4]
  GI50: < 0.0184 µM
  TGI: > 100 µM
[9]
  GI50: 0.0413 µM
[5]
  GI50: 0.0412 µM
  TGI: > 100 µM
[6]
  GI50: 0.0253 µM
[7]
  GI50: 0.0431 µM
  TGI: 30.9 µM
[8]
  GI50: 30.9 µM
  TGI: > 100 µM

## O=c1[nH]c(F)nc2c1ncn2C1OC(CO)C(O)C1O (stereo not drawn)
[1]
  GI50: > 100 µM
  TGI: > 100 µM
[10]
  GI50: > 100 µM
  TGI: > 100 µM
[3]
  GI50: > 100 µM
  TGI: > 100 µM
[4]
  GI50: > 100 µM
  TGI: > 100 µM
[9]
  GI50: > 100 µM
  TGI: > 100 µM
[5]
  GI50: > 100 µM
  TGI: > 100 µM
[7]
  GI50: > 100 µM
  TGI: > 100 µM

## CCC1c2cc3n(c(=O)c2COC1O)Cc1c-3nc2ccccc2c1Cl (stereo not drawn)
[1]
  TGI: > 84 µM
[2]
  TGI: > 100 µM
[3]
  TGI: > 100 µM
[4]
  TGI: > 75 µM
[5]
  TGI: > 100 µM
[6]
  TGI: > 100 µM
[7]
  TGI: > 100 µM
[8]
  TGI: > 100 µM

## CCCCCCc1cc2cc(-c3csc(/C=C/c4ccccc4)n3)c(=O)oc2cc1O
[1]
  GI50: 4.19 µM
  TGI: 15.2 µM
[2]
  GI50: 19 µM
  TGI: 48.5 µM
[10]
  GI50: 12.8 µM
  TGI: 44.7 µM
[3]
  GI50: 7.16 µM
  TGI: 21.4 µM
[9]
  GI50: 8.82 µM
  TGI: 31.1 µM
[5]
  GI50: 3.09 µM
  TGI: 10.1 µM
[6]
  GI50: 3.93 µM
  TGI: 17.9 µM
[7]
  GI50: 4.84 µM
  TGI: 19.7 µM
[8]
  GI50: 29 µM
  TGI: 69.5 µM

## Cc1cc2c(cc1C)[n+](=O)c(C(=O)CC(=O)C(=O)Nc1ccccc1C(C)C)c(C)n2[O-]
[1]
  TGI: > 100 µM
[2]
  TGI: > 100 µM
[3]
  TGI: > 100 µM
[4]
  TGI: > 100 µM
[5]
  TGI: > 100 µM
[6]
  TGI: > 100 µM
[7]
  TGI: > 100 µM
[8]
  TGI: > 100 µM

## O=C(NS(=O)(=O)c1ccc(NC[C@H]2COCCO2)c([N+](=O)[O-])c1)c1ccc(N2CCN(CC3=C(c4ccc(Cl)cc4)CC4(CCC4)CC3)CC2)cc1Oc1cnc2[nH]ccc2c1
[1]
  GI50: 2.23 µM
  TGI: 5.8 µM
[2]
  GI50: 1.8 µM
  TGI: 5.11 µM
[10]
  GI50: 3.57 µM
  TGI: 70.6 µM
[3]
  GI50: 1.79 µM
  TGI: 3.71 µM
[4]
  GI50: 2.11 µM
  TGI: 4.99 µM
[9]
  GI50: 1.62 µM
  TGI: 3.21 µM
[5]
  GI50: 2.77 µM
  TGI: 8.6 µM
[6]
  GI50: 1.93 µM
  TGI: 4.62 µM
[8]
  GI50: 2.29 µM
  TGI: 7.27 µM

## Brc1ccc(Nc2nc3ccccc3nc2Nc2ccc(Br)cc2)cc1
[1]
  GI50: 0.583 µM
  TGI: 3.22 µM
[2]
  GI50: 0.714 µM
  TGI: 6.61 µM
[10]
  GI50: 0.644 µM
  TGI: 12.4 µM
[3]
  GI50: 1.43 µM
  TGI: 4.12 µM
[9]
  GI50: 1.46 µM
  TGI: 3.01 µM
[5]
  GI50: 1.32 µM
  TGI: 6.52 µM
[6]
  GI50: 0.449 µM
  TGI: 3.25 µM
[7]
  GI50: 0.756 µM
  TGI: 5.87 µM
[8]
  GI50: 1.81 µM
  TGI: 6.6 µM

— PubChem BioAssay (NCI)
